Assay results: the Kinase Knowledgebase extract (Sharma et al. 2016)

target: EGFR (human) (UniProt P00533)
Sequence (P00533 whole entry, looked up): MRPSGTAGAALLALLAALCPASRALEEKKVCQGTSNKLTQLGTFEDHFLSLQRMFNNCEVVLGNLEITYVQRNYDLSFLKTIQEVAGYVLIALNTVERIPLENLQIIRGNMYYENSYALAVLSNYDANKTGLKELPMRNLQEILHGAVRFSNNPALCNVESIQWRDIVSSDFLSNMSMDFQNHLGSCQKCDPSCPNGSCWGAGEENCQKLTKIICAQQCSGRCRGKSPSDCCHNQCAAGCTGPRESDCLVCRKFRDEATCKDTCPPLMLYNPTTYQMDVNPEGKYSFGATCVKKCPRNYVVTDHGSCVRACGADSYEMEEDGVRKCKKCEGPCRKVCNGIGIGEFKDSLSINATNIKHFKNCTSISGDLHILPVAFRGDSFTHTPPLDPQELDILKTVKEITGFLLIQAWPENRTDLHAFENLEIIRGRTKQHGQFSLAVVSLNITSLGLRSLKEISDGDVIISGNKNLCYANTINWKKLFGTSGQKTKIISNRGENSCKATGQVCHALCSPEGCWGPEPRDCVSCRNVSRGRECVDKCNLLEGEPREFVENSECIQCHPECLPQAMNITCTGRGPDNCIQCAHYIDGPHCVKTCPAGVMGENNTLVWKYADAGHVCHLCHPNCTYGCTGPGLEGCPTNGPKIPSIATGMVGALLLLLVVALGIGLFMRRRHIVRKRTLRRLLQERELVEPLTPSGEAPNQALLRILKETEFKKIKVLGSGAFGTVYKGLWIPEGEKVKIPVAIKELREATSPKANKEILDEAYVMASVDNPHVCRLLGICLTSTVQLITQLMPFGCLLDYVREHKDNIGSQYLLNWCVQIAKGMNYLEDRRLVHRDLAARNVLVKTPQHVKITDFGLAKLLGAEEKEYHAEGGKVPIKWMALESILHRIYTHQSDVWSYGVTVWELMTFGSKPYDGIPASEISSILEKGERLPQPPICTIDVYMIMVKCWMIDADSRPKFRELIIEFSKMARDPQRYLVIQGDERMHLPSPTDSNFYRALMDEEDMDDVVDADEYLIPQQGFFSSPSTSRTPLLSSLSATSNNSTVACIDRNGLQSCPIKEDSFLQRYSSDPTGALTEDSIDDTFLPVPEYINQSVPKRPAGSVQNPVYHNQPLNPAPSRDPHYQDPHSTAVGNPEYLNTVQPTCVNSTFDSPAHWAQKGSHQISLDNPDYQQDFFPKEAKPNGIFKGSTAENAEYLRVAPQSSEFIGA

IC50, > 50 µM:
Cc1ccc(C(=O)Nc2ccccc2)c(O)c1
O=C(Nc1ccc(Br)cc1)c1ccccc1O
Cc1ccc(C(=O)Nc2ccc(F)cc2F)c(O)c1
O=C(Nc1ccc(F)cc1)c1cc(I)ccc1O
Cc1ccc(C(=O)Nc2ccc(C(C)C)cc2)c(O)c1
O=C(Nc1ccccc1)c1ccccc1O
O=C(Nc1ccc(F)cc1F)c1ccccc1O
O=C(Nc1ccc(F)cc1)c1ccccc1O
Cc1ccc(C(=O)Nc2ccc(Cl)cc2)c(O)c1
O=C(Nc1ccc(F)cc1)c1cc(Br)cc(Br)c1O
